The structures appear in SMILES notation. Where two headings read alike, the source gives them in different places.

For this test, the target named is Human Factor D (Homo sapiens (Human), UniProt P00746). Put plainly: Human Factor D Assay. Type of test: biochemical. The method, boiled down:
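Serum-purified human factor D (80 nM final) preincubated with compound 5 min at room temperature in 50 mM Tris, 1 M NaCl, pH 7.5. Z-L-Lys-SBzl and DTNB added at 100 μM each; A405 followed every 30 s for 30 min. IC50 by nonlinear regression of rates.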

Where [1] appears, read: Table 6, Human Factor D 80 nM, substrate Z-L-Lys-SBzl, read-out: IC5 (Stars).
Setting [2] is: Table 5, Human Factor D 80 nM, substrate Z-L-Lys-SBzl, read-out: IC50 (Stars).

Human Factor D, sequence (P00746 26-253): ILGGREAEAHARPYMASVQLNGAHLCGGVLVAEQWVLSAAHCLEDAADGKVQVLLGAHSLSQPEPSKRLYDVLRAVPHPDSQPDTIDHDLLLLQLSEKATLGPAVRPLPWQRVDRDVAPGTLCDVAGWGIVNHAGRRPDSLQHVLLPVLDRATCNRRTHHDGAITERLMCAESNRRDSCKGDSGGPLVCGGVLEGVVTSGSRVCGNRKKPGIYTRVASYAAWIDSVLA

In the case of `Cc1ncc(-c2cc(CC(=O)N3[C@H](C(=O)Nc4nc(Br)ccc4C)C[C@@]4(C)C[C@@H]34)cc(C(N)=O)c2)cn1` [Compound T-169, (1R,3S,5R)-N-(6-bromo-3-methylpyridin-2-yl)-2-(2-(3-carbamoyl-5-(2-methylpyrimidin-5-yl)phenyl)acetyl)-5-methyl-2-azabicyclo[3.1.0]hexane-3-carboxamide], the IC50 (Table 7, read-out: IC5 (Stars)) was 1000 to 10000 nM.
On to `CC(=O)c1nn(CC(=O)N2[C@H](C(=O)Nc3nc(Br)ccc3C)C[C@@]3(C)C[C@@H]23)c2ccc(OCCS(=O)(=O)CC3(C)COC3)cc12` [Compound T-59, (1R,5R)-2-(2-(3-acetyl-5-(2-(((3-methyloxetan-3-yl)methyl)sulfonyl)ethoxy)-1H-indazol-1-yl)acetyl)-N-(6-bromo-3-methylpyridin-2-yl)-5-methyl-2-azabicyclo[3.1.0]hexane-3-carboxamide], for which, under setting [1], the IC50 is less than 1000 nM.
For the compound `CC(=O)c1cc(C(=O)O)n(CC(=O)N2C[C@H](F)C[C@H]2C(=O)Nc2cccc(Br)n2)c1` [Compound T-17, 4-acetyl-1-(2-((2S,4R)-2-((6-bromopyridin-2-yl)carbamoyl)-4-fluoropyrrolidin-1-yl)-2-oxoethyl)-1H-pyrrole-2-carboxylic acid], the IC50 under setting [2] was less than 1000 nM.
On the same count and under the same terms, the result for `CC(=O)c1nn(CC(=O)N2[C@H](C(=O)Nc3nc(Br)ccc3C)C[C@@]3(C)C[C@@H]23)c2ccc(NC(=O)C3CCCCC3(F)F)cc12` (stereo partly drawn) [Compound T-9, (1R,3S,5R)-2-(2-(3-acetyl-5-(2,2-difluorocyclohexane-1-carboxamido)-1H-indazol-1-yl)acetyl)-N-(6-bromo-3-methylpyridin-2-yl)-5-methyl-2-azabicyclo[3.10]hexane-3-carboxamide] reads less than 1000 nM; that for `CC(=O)c1nn(CC(=O)N2[C@H](C(=O)Nc3nc(Br)ccc3C)C[C@@]3(C)C[C@@H]23)c2cc(S(C)(=N)=O)ccc12` (stereo partly drawn) [Compound T-33, (1R,3S,5R)-2-(2-(3-acetyl-6-(S-methylsulfonimidoyl)-1H-indazol-1-yl)acetyl)-N-(6-bromo-3-methylpyridin-2-yl)-5-methyl-2-azabicyclo[3.1.0]hexane-3-carboxamide], less than 1000 nM.
For the compound `CC(=O)c1nn(CC(=O)N2[C@H](C(=O)Nc3nc(Br)ccc3C)C[C@@]3(C)C[C@@H]23)c2ccc(Nc3cccn(-c4ccccn4)c3=O)cc12` [Compound T-92, (1R,3S,5R)-2-(2-(3-acetyl-5-((2-oxo-2H-[1,2′-bipyridin]-3-yl)amino)-1H-indazol-1-yl)acetyl)-N-(6-bromo-3-methylpyridin-2-yl)-5-methyl-2-azabicyclo[3.1.0]hexane-3-carboxamide], the IC50 (Table 7, read-out: IC5 (Stars)) was less than 1000 nM.
Same read-out and setting: the result for `COc1cc(CC(=O)N2[C@H](C(=O)Nc3nc(Br)ccc3C)C[C@@]3(C)C[C@@H]23)cc(-c2cnc(OC)nc2)c1` [Compound T-97, (1R,3S,5R)-N-(6-bromo-3-methylpyridin-2-yl)-2-(2-(3-methoxy-5-(2-methoxypyrimidin-5-yl)phenyl)acetyl)-5-methyl-2-azabicyclo[3.1.0]hexane-3-carboxamide] reads 1000 to 10000 nM.
Still for that read-out and setting: the result for `CC(=O)c1nn(CC(=O)N2C[C@H](F)C[C@H]2C(=O)Nc2nc(Br)ccc2C)c2cc(OCP(=O)(O)O)ccc12` [Compound T-130, (((3-acetyl-1-(2-((2S,4R)-2-((6-bromo-3-methylpyridin-2-yl)carbamoyl)-4-fluoropyrrolidin-1-yl)-2-oxoethyl)-1H-indazol-6-yl)oxy)methyl)phosphonic acid] reads less than 1000 nM; that for `Cc1ncc(-c2cc(C#N)cc(CC(=O)N3C[C@H](F)C[C@H]3C(=O)Nc3cccc(Br)n3)c2)cn1` [Compound T-170, (2S,4R)-N-(6-bromopyridin-2-yl)-1-(2-(3-cyano-5-(2-methylpyrimidin-5-yl)phenyl)acetyl)-4-fluoropyrrolidine-2-carboxamide], 1000 to 10000 nM.
As for `CC(=O)O[C@@H]1CO[C@H]2[C@@H]1OC[C@H]2Oc1ccc2c(c1)c(C(C)=O)nn2CC(=O)N1C[C@H](F)C[C@H]1C(=O)Nc1cccc(Br)n1` [Compound T-63, (3R,3aR,6R,6aR)-6-((3-acetyl-1-(2-((2S,4R)-2-((6-bromopyridin-2-yl)carbamoyl)-4-fluoropyrrolidin-1-yl)-2-oxoethyl)-1H-indazol-5-yl)oxy)hexa-hydrofuro[3,2-b]furan-3-yl acetate], the IC50 under setting [1] was less than 1000 nM.
Take `CC(=O)c1nn(CC(=O)N2C[C@H](F)C[C@H]2C(=O)Nc2nc(Br)ccc2C)c2ccc(OCCS(=O)(=O)CC3(C)COC3)cc12` [Compound T-55, (2S,4R)-1-(2-(3-acetyl-5-(2-(((3-methyloxetan-3-yl)methyl)sulfonyl)ethoxy)-1H-indazol-1-yl)acetyl)-N-(6-bromo-3-methylpyridin-2-yl)-4-fluoro-pyrrolidine-2-carboxamide]: the IC50 under setting [1] is less than 1000 nM.
Take `CC(=O)c1nn(CC(=O)N2C[C@H](F)C[C@H]2C(=O)NCc2cccc(Cl)c2F)c2cc(OCP(=O)(O)O)ccc12` [Compound T-131, (((3-acetyl-1-(2-((2S,4R)-2-((3-chloro-2-fluorobenzyl)carbamoyl)-4-fluoropyrrolidin-1-yl)-2-oxoethyl)-1H-indazol-6-yl)oxy)methyl)phosphonic acid]: the IC50 (Table 7, read-out: IC5 (Stars)) was less than 1000 nM.
As to `CC(=O)c1cc(CC(=O)N2C[C@H](F)C[C@H]2C(=O)Nc2cccc(Br)n2)cc(-c2cnc(C)nc2)c1` [Compound T-105, (2S,4R)-1-(2-(3-acetyl-5-(2-methylpyrimidin-5-yl)phenyl)acetyl)-N-(6-bromopyridin-2-yl)-4-fluoropyrrolidine-2-carboxamide], the IC50 (Table 7, read-out: IC5 (Stars)) was less than 1000 nM.
Consider `CS(=N)(=O)COc1ccc2c(C(N)=O)nn(CC(=O)N3C[C@H](F)C[C@H]3C(=O)Nc3cccc(-c4ccccc4Cl)c3F)c2c1` (stereo partly drawn) [Compound T-60, 1-(2-((2S,4R)-2-((2′-chloro-2-fluoro-[1,1′-biphenyl]-3-yl)carbamoyl)-4-fluoropyrrolidin-1-yl)-2-oxoethyl)-6-((S-methylsulfonimidoyl)methoxy)-1H-indazole-3-carboxamide], for which the IC50 under setting [1] was less than 1000 nM.
Take `CC(=O)c1cn(CC(=O)N2C3CC3(CN(C)C)C[C@H]2C(=O)NCc2cccc(Cl)c2F)c2cc(P(=O)(O)O)ccc12` (stereo partly drawn) [Compound T-46, (3-acetyl-1-(2-((3S)-3-((3-chloro-2-fluorobenzyl)carbamoyl)-5-((dimethylamino)methyl)-2-azabicyclo[3.1.0]hexan-2-yl)-2-oxoethyl)-1H-indol-6-yl)phosphonic acid]: the IC50 under setting [2] fell in the range of 1000 to 10000 nM.
On to `COC(=O)c1cc2c(cc1-c1cnc(C)nc1)c(C(C)=O)nn2CC(=O)N1[C@H](C(=O)Nc2nc(Br)ccc2C)C[C@@]2(C)C[C@@H]12` [Compound T-129, methyl 3-acetyl-1-(2-((1R,3S,5R)-3-((6-bromo-3-methylpyridin-2-yl)carbamoyl)-5-methyl-2-azabicyclo[3.1.0]hexan-2-yl)-2-oxoethyl)-5-(2-methylpyrimidin-5-yl)-1H-indazole-6-carboxylate], for which, where the note is “Table 7, read-out: IC5 (Stars)”, the IC50 is less than 1000 nM.
In the case of `CCOC(=O)/C=C/c1cn(CC(=O)N2C[C@H](F)C[C@H]2C(=O)Nc2cccc(Br)n2)nc1C(N)=O` [Compound T-22, (E)-ethyl 3-(1-(2-((2S,4R)-2-((6-bromopyridin-2-yl)carbamoyl)-4-fluoropyrrolidin-1-yl)-2-oxoethyl)-3-carbamoyl-1H-pyrazol-4-yl)acrylate], the IC50 under setting [2] lay within 1000 to 10000 nM.

The record behind these values is US11447465B2, “Pharmaceutical compounds for treatment of medical disorders” (Achillion Pharmaceuticals, Inc., priority 2017, dated 2022).
